# ChEMBL document CHEMBL4706545, “Antiproliferative effect of mitochondria-targeting allobetulin 1,2,3-triazolium salt derivatives and their mechanism of inducing apoptosis of cancer cells” (Eur J Med Chem, 2020)
# Activity calls are given as the source filed them. No cut-off for these calls is given here.
# What was measured:
# [1] = system: ECa-109 cell line; assay: Induction of ROS-mediated apoptosis in human ECa-109 cells assessed as late apoptotic cells at 2 uM incubated for 48 hrs by annexin V-PE and 7-AAD staining based flow cytometry analysis (reference value: 3.89 %); assay type: functional
# [2] = system: ECa-109 cell line; assay: Induction of apoptosis in human ECa-109 cells assessed as decrease in caspase-9 incubated for 48 hrs by Western blot analysis; assay type: functional, cell-based; details: dose 1-4 µM
# [3] = system: ECa-109 cell line; assay: Induction of ROS-mediated apoptosis in human ECa-109 cells assessed as early apoptotic cells at 4 uM incubated for 48 hrs in presence of NAC by annexin V-PE and 7-AAD staining based flow cytometry analysis (reference value: 1.90 %); assay type: functional
# [4] = system: ECa-109 cell line; assay: Induction of apoptosis in human ECa-109 cells assessed as necrotic cells at 1 uM incubated for 48 hrs by annexin-V-FITC and PI staining based fluorescence microscopic analysis (reference value: 1.19 %); assay type: functional
# [5] = system: ECa-109 cell line; assay: Induction of ROS-mediated apoptosis in human ECa-109 cells assessed as viable cells at 2 uM incubated for 48 hrs by annexin V-PE and 7-AAD staining based flow cytometry analysis (reference value: 92.7 %); assay type: functional; details: read-out: Activity
# [6] = system: ECa-109 cell line; assay: Induction of apoptosis in human ECa-109 cells assessed as early apoptotic cells at 4 uM incubated for 48 hrs by annexin-V-FITC and PI staining based fluorescence microscopic analysis (reference value: 0.971 %); assay type: functional
# [7] = system: ECa-109 cell line; assay: Induction of apoptosis in human ECa-109 cells assessed as viable cells at 2 uM incubated for 48 hrs by annexin-V-FITC and PI staining based fluorescence microscopic analysis (reference value: 95.8 %); assay type: functional; details: read-out: Activity
# [8] = system: ECa-109 cell line; assay: Induction of ROS-mediated apoptosis in human ECa-109 cells assessed as necrotic cells at 4 uM incubated for 48 hrs in presence of NAC by annexin V-PE and 7-AAD staining based flow cytometry analysis (reference value: 1.09 %); assay type: functional
# [9] = system: ECa-109 cell line; assay: Induction of ROS-mediated apoptosis in human ECa-109 cells assessed as viable cells at 4 uM incubated for 48 hrs in presence of NAC by annexin V-PE and 7-AAD staining based flow cytometry analysis (reference value: 94 %); assay type: functional; details: read-out: Activity
# [10] = system: ECa-109 cell line; assay: Induction of ROS generation in human […] cells incubated for 48 hrs by DCFH-DA staining based fluorescence microscopic analysis; assay type: functional; details: dose 1-4 µM
# [11] = system: ECa-109 cell line; assay: Induction of mitochondrial membrane potential disruption in human ECa-109 cells incubated for 48 hrs by JC-1 dye based flow cytometry analysis; details: Mitochondria, dose 1-4 µM
# [12] = system: ECa-109 cell line; assay: Induction of cell cycle arrest in human ECa-109 cells assessed as accumulation in S phase at 1 uM incubated for 48 hrs by PI staining based flow cytometry analysis (reference value: 39.33 %); assay type: functional
# [13] = system: ECa-109 cell line; assay: Induction of ROS-mediated apoptosis in human ECa-109 cells assessed as viable cells at 1 uM incubated for 48 hrs in presence of NAC by annexin V-PE and 7-AAD staining based flow cytometry analysis (reference value: 94 %); assay type: functional; details: read-out: Activity
# [14] = system: ECa-109 cell line; assay: Induction of apoptosis in human ECa-109 cells assessed as viable cells at 1 uM incubated for 48 hrs by annexin-V-FITC and PI staining based fluorescence microscopic analysis (reference value: 95.8 %); assay type: functional; details: read-out: Activity
# [15] = system: ECa-109 cell line; assay: Induction of ROS-mediated apoptosis in human ECa-109 cells assessed as early apoptotic cells at 1 uM incubated for 48 hrs by annexin V-PE and 7-AAD staining based flow cytometry analysis (reference value: 2.70 %); assay type: functional
# [16] = system: ECa-109 cell line; assay: Induction of apoptosis in human ECa-109 cells assessed as early apoptotic cells at 2 uM incubated for 48 hrs by annexin-V-FITC and PI staining based fluorescence microscopic analysis (reference value: 0.971 %); assay type: functional
# [17] = system: ECa-109 cell line; assay: Induction of apoptosis in human ECa-109 cells at 1 to 4 uM incubated for 48 hrs by AO/PI staining based fluorescence microscopic analysis; assay type: functional, cell-based; details: dose 1-4 µM
# [18] = system: ECa-109 cell line; assay: Induction of cell cycle arrest in human ECa-109 cells assessed as accumulation in G0/G1 phase at 1 uM incubated for 48 hrs by PI staining based flow cytometry analysis (reference value: 52.28 %); assay type: functional
# [19] = system: ECa-109 cell line; assay: Induction of ROS-mediated apoptosis in human ECa-109 cells assessed as necrotic cells at 2 uM incubated for 48 hrs in presence of NAC by annexin V-PE and 7-AAD staining based flow cytometry analysis (reference value: 1.09 %); assay type: functional
# [20] = Selectivity index, ratio of IC50 for cytotoxicity against human HL7702 cells to IC50 for cytotoxicity against human ECa-109 cells
# [21] = system: ECa-109 cell line; assay: Induction of apoptosis in human ECa-109 cells assessed as necrotic cells at 4 uM incubated for 48 hrs by annexin-V-FITC and PI staining based fluorescence microscopic analysis (reference value: 1.19 %); assay type: functional
# [22] = system: SGC-7901; assay: Induction of apoptosis in human SGC-7901 cells assessed as decrease in caspase-8 incubated for 48 hrs by Western blot analysis; assay type: functional, cell-based; details: dose 1-4 µM
# [23] = system: SGC-7901; assay: Induction of ROS-mediated apoptosis in human SGC-7901 cells assessed as early apoptotic cells at 4 uM incubated for 48 hrs in presence of NAC by annexin V-PE and 7-AAD staining based flow cytometry analysis (reference value: 1.15 %); assay type: functional
# [24] = system: SGC-7901; assay: Induction of cell cycle arrest in human SGC-7901 cells assessed as accumulation in G0/G1 phase at 1 uM incubated for 48 hrs by PI staining based flow cytometry analysis (reference value: 57.39 %); assay type: functional
# [25] = system: SGC-7901; assay: Induction of ROS-mediated apoptosis in human SGC-7901 cells assessed as viable cells at 4 uM incubated for 48 hrs by annexin V-PE and 7-AAD staining based flow cytometry analysis (reference value: 93.6 %); assay type: functional; details: read-out: Activity
# [26] = system: SGC-7901; assay: Induction of apoptosis in human SGC-7901 cells assessed as late apoptotic cells at 1 uM incubated for 48 hrs by annexin-V-FITC and PI staining based fluorescence microscopic analysis (reference value: 3.87 %); assay type: functional
# [27] = system: SGC-7901; assay: Induction of apoptosis in human SGC-7901 cells assessed as nuclear fragmentation at 1 to 4 uM incubated for 48 hrs by Hoechst staining based fluorescence microscopic analysis; assay type: functional, cell-based; details: dose 1-4 µM
# [28] = system: SGC-7901; assay: Induction of cell cycle arrest in human SGC-7901 cells assessed as accumulation in G2/M phase at 2 uM incubated for 48 hrs by PI staining based flow cytometry analysis (reference value: 11.48 %); assay type: functional
# [29] = system: SGC-7901; assay: Induction of ROS-mediated apoptosis in human SGC-7901 cells assessed as necrotic cells at 2 uM incubated for 48 hrs in presence of NAC by annexin V-PE and 7-AAD staining based flow cytometry analysis (reference value: 0.623 %); assay type: functional
# [30] = system: SGC-7901; assay: Induction of cell cycle arrest in human SGC-7901 cells assessed as accumulation in G0/G1 phase at 4 uM incubated for 48 hrs by PI staining based flow cytometry analysis (reference value: 57.39 %); assay type: functional
# [31] = system: SGC-7901; assay: Induction of ROS-mediated apoptosis in human SGC-7901 cells assessed as late apoptotic cells at 4 uM incubated for 48 hrs in presence of NAC by annexin V-PE and 7-AAD staining based flow cytometry analysis (reference value: 3.45 %); assay type: functional
# [32] = system: SGC-7901; assay: Induction of apoptosis in human SGC-7901 cells assessed as viable cells at 1 uM incubated for 48 hrs by annexin-V-FITC and PI staining based fluorescence microscopic analysis (reference value: 93.8 %); assay type: functional; details: read-out: Activity
smiles,measurement,setting,value
COc1ccccc1Cn1n[n+](C)c2c1C(C)(C)[C@@H]1CC[C@]3(C)[C@H](CC[C@@H]4[C@H]5[C@H]6OC[C@@]5(CCC6(C)C)CC[C@]43C)[C@@]1(C)C2.[I-],Activity,[1],28.7%
same,Activity,[2],Dose-dependent effect
same,Activity,[3],3.5%
same,Activity,[4],0.624%
same,viability at 2 µM,[5],55%
same,Activity,[6],2.92%
same,viability at 2 µM,[7],55.1%
same,Activity,[8],3.83%
same,viability at 4 µM,[9],13.8%
same,Activity,[10],Dose-dependent effect
same,Activity,[11],Dose-dependent effect
same,Activity,[12],35.03%
same,viability at 1 µM,[13],76.2%
same,viability at 1 µM,[14],69.1%
same,Activity,[15],11.6%
same,Activity,[16],20.5%
same,Activity,[17],Active
same,Activity,[18],54.16%
same,Activity,[19],5.48%
same,Ratio IC50,[20],1.53
same,Activity,[21],3.58%
C[n+]1nn(Cc2c(F)cccc2Cl)c2c1C[C@]1(C)[C@H]3CC[C@@H]4[C@H]5[C@H]6OC[C@@]5(CCC6(C)C)CC[C@@]4(C)[C@]3(C)CC[C@H]1C2(C)C.[I-],Activity,[22],Dose-dependent effect
same,Activity,[23],4.28%
same,Activity,[24],80.42%
same,viability at 4 µM,[25],0.152%
same,Activity,[26],4.79%
same,Activity,[27],Active
same,Activity,[28],9.6%
same,Activity,[29],0.637%
same,Activity,[30],59.38%
same,Activity,[31],77.8%
same,viability at 1 µM,[32],83%
